Source: ChEMBL document CHEMBL5120864, “Targeting Enhancer of Zeste Homolog 2 for the Treatment of Hematological Malignancies and Solid Tumors: Candidate Structure-Activity Relationships Insights and Evolution Prospects” (J Med Chem, 2022)
Values after ≈ are worked out from the molar mass of the structure shown.

How the values were obtained:
HCT-15 = assay: cells; type: functional, cell-based; settings: Homo sapiens, HCT-15, 96 h
MDA-MB-231 [1] = assay: cells; type: functional, cell-based; settings: Homo sapiens, MDA-MB-231, 96 h
physchem = settings: buffer
[2] = biological target: T1, Histone-lysine N-methyltransferase EZH2 (Homo sapiens, UniProt Q15910, Y641F)
T1 sequence (Q15910 whole entry Y641F): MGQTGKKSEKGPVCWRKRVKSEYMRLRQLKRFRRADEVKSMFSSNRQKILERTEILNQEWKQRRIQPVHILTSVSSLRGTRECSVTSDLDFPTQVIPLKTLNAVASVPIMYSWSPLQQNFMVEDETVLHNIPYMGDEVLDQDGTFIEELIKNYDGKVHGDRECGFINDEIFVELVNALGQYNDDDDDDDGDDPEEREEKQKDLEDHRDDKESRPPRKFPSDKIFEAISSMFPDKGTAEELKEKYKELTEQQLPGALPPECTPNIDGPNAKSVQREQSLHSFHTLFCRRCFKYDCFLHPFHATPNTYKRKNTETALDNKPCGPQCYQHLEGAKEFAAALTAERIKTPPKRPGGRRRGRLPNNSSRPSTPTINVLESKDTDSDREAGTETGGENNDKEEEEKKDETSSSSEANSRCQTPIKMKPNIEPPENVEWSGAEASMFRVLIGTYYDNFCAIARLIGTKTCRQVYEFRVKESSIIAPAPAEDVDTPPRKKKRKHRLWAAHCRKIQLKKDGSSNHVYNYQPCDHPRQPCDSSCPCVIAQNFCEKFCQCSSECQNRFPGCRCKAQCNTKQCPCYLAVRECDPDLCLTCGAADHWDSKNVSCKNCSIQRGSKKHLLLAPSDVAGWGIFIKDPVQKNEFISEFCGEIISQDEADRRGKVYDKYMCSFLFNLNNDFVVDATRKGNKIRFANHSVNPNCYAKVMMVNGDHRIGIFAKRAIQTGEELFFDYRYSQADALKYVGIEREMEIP

ZR-75-1 = assay: cells; type: functional, cell-based; settings: Homo sapiens, ZR-75-1, 96 h
MCF7 [3] = assay: cells; type: functional, cell-based; settings: Homo sapiens, MCF7, 96 h
[4] = biological target: T2, Histone-lysine N-methyltransferase EZH1 (Homo sapiens, UniProt Q92800)
T2 sequence (Q92800 whole entry): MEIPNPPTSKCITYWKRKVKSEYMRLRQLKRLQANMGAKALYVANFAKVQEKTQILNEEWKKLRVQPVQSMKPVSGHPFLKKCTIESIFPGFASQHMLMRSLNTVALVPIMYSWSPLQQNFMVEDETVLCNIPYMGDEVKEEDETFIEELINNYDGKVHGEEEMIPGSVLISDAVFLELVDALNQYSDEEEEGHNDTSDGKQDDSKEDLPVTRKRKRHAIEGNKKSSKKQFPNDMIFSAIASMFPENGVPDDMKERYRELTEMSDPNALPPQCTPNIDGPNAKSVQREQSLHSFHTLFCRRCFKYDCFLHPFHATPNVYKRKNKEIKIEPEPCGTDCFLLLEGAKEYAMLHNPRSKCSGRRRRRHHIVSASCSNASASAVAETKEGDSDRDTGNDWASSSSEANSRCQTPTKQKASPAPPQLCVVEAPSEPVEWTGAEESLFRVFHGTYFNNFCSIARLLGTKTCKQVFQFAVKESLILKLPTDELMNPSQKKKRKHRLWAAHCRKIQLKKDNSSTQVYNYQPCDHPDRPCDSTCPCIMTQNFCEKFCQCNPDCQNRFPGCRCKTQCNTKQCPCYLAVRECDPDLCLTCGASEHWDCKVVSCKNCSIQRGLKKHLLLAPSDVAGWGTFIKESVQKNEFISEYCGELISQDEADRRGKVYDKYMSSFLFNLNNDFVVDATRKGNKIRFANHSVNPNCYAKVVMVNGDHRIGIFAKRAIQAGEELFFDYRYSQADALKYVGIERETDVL

[5] = biological target: T3, Histone-lysine N-methyltransferase EZH2 (Homo sapiens, UniProt Q15910)
T3 sequence (Q15910 whole entry): as the sequence (Q15910 whole entry Y641F) above, with F641Y counted along it

[6] = biological target: T3, Histone-lysine N-methyltransferase EZH2; remark: listed apart in the source
[7] = biological target: T1, Histone-lysine N-methyltransferase EZH2; remark: listed apart in the source
KARPAS-422 [8] = assay: animal or person; type: functional, Homo sapiens; settings: Mus musculus, route po
[9] = mouse, in vivo
[10] = biological target: T3, Histone-lysine N-methyltransferase EZH2; remark: listed apart in the source
cells = type: functional, cell-based; settings: Homo sapiens, WSU-FSCCL, 48 h
MDA-MB-231 [11] = assay: cells; type: functional, cell-based; settings: Homo sapiens, MDA-MB-231, 72 h
BT-474 = assay: cells; type: functional, cell-based; settings: Homo sapiens, BT-474, 72 h
in vivo = settings: rat
NCI-H1299 = assay: cells; type: functional, cell-based; settings: Homo sapiens
A549 = assay: cells; type: functional, cell-based; settings: Homo sapiens
NCI-H1975 = assay: cells; type: functional, cell-based; settings: Homo sapiens
PC-3 [12] = assay: cells; type: functional, cell-based; settings: Homo sapiens
[13] = biological target: T3, Histone-lysine N-methyltransferase EZH2; remark: listed apart in the source
Pfeiffer = assay: cells; type: functional, cell-based; settings: Homo sapiens, 96 h
[14] = biological target: T2, Histone-lysine N-methyltransferase EZH1; remark: listed apart in the source
SU-DHL-6 = assay: cells; type: functional, cell-based; settings: Homo sapiens, SU-DHL-6, 96 h
[15] = biological target: T3, Histone-lysine N-methyltransferase EZH2; remark: listed apart in the source
PC-3 [16] = type: functional, Homo sapiens; settings: time 24 hrs
MCF7 [17] = type: functional, Homo sapiens; settings: time 24 hrs
HepG2 [18] = type: functional, Homo sapiens; settings: time 24 hrs
HepG2 [19] = assay: cells; type: functional, cell-based; settings: Homo sapiens, HepG2, 24 h
MCF7 [20] = assay: cells; type: functional, cell-based; settings: Homo sapiens, MCF7, 24 h
PC-3 [21] = assay: cells; type: functional, cell-based; settings: Homo sapiens, PC-3, 24 h
[22] = biological target: T2, Histone-lysine N-methyltransferase EZH1; remark: listed apart in the source
KARPAS-422 [23] = assay: cells; type: functional; settings: Homo sapiens, time 10-15 day

In the case of COc1cccc2nc(N3CCCN(C)CC3)cc(NC3CCN(C)CC3)c12, the IC50 (HCT-15) is reported as 7600 nM and the IC50 (MDA-MB-231 [1]) is reported as 2450 nM.
Work on CCN(c1cc(-c2ccccc2)cc(C(=O)NCc2c3c(c(C)[nH]c2=O)CCCC3)c1C)C1CCOCC1 yielded a solubility (physchem) of 185 µg/mL (≈ 361 µM).
CCN(c1cc(-c2ccc(N3CCN(C)CC3)cc2)cc(C(=O)NCc2c3c(c(C)[nH]c2=O)CCCC3)c1C)C1CCOCC1 showed an IC50 [2] of 15 nM, an IC50 (ZR-75-1) of 89 nM and an IC50 (MCF7 [3]) of 990 nM. The IC50 [4] was 81 nM.
C=CC(=O)Nc1cc(-c2ccc(N3CCNCC3)nc2)cc(C(=O)NCc2c(CC)cc(C)[nH]c2=O)c1C gave an IC50 [5] of 47 nM.
COC1CN([C@H]2CC[C@H]([C@@H](C)c3scc(C(=O)NCc4c(C)cc(C)[nH]c4=O)c3C)CC2)C1 showed an IC50 [6] of 1.43 nM, an IC50 [7] of 0.93 nM and an inhibition in vivo at 50 mg/kg (KARPAS-422 [8]) of 53%.
With COc1cc(C)[nH]c(=O)c1CNC(=O)c1c(C)n(C(C)C2CCN(C)C(C(F)(F)F)C2)c2ccccc12 (configuration not stated) the IC50 [6] was < 100 nM, the CL [9] was 55 µL/min/mg and the IC50 [7] was < 100 nM. The IC50 [10] was < 400000 nM.
COc1cc2nc(N3CCN(C)CC3)nc(NC3CCN(Cc4ccccc4)CC3)c2cc1OC gave an IC50 (cells) of 3400 nM, an IC50 (MDA-MB-231 [11]) of 4300 nM and an IC50 (BT-474) of 2100 nM.
Compound Nc1nccc2c1ncn2[C@@H]1C=C(CO)[C@@H](O)[C@H]1O has a half-life (in vivo) of 1.1 h, an IC50 (NCI-H1299) of 210 nM and an IC50 (A549) of 240 nM. The IC50 (NCI-H1975) was 80 nM, the IC50 (PC-3 [12]) was 190 nM and the IC50 [13] was 80 nM.
With CCN(c1cc(-c2ccc(CN3CCN(C)CC3)cc2)cc(C(=O)NCc2c3c(c(C)[nH]c2=O)CCCC3)c1C)C1CCCCC1 the IC50 (Pfeiffer) was 1430 nM, the IC50 [2] was 182 nM and the IC50 [14] was 136 nM. It also gave an IC50 (SU-DHL-6) of 2010 nM and an IC50 [15] of 9.8 nM.
For COc1ccc(C2SCCC(=O)N2Nc2nc3ccccc3[nH]2)cc1 (configuration not stated), the “inhibition (INH)” value (PC-3 [16]) was 36.7%, the “inhibition (INH)” value (MCF7 [17]) was 50.8% and the “inhibition (INH)” value (HepG2 [18]) was 64%. The IC50 (HepG2 [19]) was 8950 nM, the IC50 (MCF7 [20]) was 16600 nM and the IC50 (PC-3 [21]) was 27000 nM.
CCC(CC)n1ccc2c(C(=O)NCc3c(C)cc(C)[nH]c3=O)cc(C#N)cc21 showed an IC50 [22] of 13 nM.
Work on CCN1CCN(c2ccc(-c3cc(C(=O)NCc4c(C)cc(C)[nH]c4=O)c(C)c4c3O[C@](C)(CN3CCOCC3)O4)cn2)CC1 yielded a GI50 (KARPAS-422 [23]) of 210 nM.
